Where two headings read alike, the source gives them in different places.
Experiments:
[1] = target: ERK1 (Homo sapiens, UniProt P27361); experiment: ICKP radiometric kinase assay; type: biochemical; conditions: read-out: % AR (% kinase activity remaining)
[2] = target: PDK1 (Homo sapiens, UniProt O15530); experiment: ICKP radiometric kinase assay; type: biochemical; conditions: read-out: % AR (% kinase activity remaining)
[3] = target: PKB beta (Homo sapiens, UniProt P31751); experiment: ICKP radiometric kinase assay; type: biochemical; conditions: read-out: % AR (% kinase activity remaining)
[4] = target: PKA (Homo sapiens, UniProt P17612); experiment: ICKP radiometric kinase assay; type: biochemical; conditions: read-out: % AR (% kinase activity remaining)
[5] = target: ROCK 2 (Homo sapiens, UniProt O75116); experiment: ICKP radiometric kinase assay; type: biochemical; conditions: read-out: % AR (% kinase activity remaining)
[6] = target: PKC alpha (Homo sapiens, UniProt P17252); experiment: ICKP radiometric kinase assay; type: biochemical; conditions: read-out: % AR (% kinase activity remaining)
[7] = target: PKC zeta (Homo sapiens, UniProt Q05513); experiment: ICKP radiometric kinase assay; type: biochemical; conditions: read-out: % AR (% kinase activity remaining)
[8] = target: MAPKAP-K2 (Homo sapiens, UniProt P49137); experiment: ICKP radiometric kinase assay; type: biochemical; conditions: read-out: % AR (% kinase activity remaining)
[9] = target: CAMKK beta (Homo sapiens, UniProt Q96RR4); experiment: ICKP radiometric kinase assay; type: biochemical; conditions: read-out: % AR (% kinase activity remaining)
[10] = target: Aurora A (Homo sapiens, UniProt O14965); experiment: ICKP radiometric kinase assay; type: biochemical; conditions: read-out: % AR (% kinase activity remaining)
[11] = target: Aurora B (Homo sapiens, UniProt Q96GD4); experiment: ICKP radiometric kinase assay; type: biochemical; conditions: read-out: % AR (% kinase activity remaining)
Chain of Aurora B (Q96GD4 whole entry): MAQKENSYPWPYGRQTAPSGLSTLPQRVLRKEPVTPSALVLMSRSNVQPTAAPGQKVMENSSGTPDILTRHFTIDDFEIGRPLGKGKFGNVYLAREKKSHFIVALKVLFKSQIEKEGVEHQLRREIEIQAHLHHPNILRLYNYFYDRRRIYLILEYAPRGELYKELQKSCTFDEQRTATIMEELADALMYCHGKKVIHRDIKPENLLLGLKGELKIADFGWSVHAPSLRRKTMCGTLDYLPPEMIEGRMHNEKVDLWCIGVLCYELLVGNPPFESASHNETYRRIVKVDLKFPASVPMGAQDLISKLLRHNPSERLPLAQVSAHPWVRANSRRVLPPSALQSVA

[12] = target: LKB1 (Homo sapiens, UniProt Q15831); experiment: ICKP radiometric kinase assay; type: biochemical; conditions: read-out: % AR (% kinase activity remaining)
[13] = target: MARK3 (Homo sapiens, UniProt P27448); experiment: ICKP radiometric kinase assay; type: biochemical; conditions: read-out: % AR (% kinase activity remaining)
Chain of MARK3 (P27448 whole entry): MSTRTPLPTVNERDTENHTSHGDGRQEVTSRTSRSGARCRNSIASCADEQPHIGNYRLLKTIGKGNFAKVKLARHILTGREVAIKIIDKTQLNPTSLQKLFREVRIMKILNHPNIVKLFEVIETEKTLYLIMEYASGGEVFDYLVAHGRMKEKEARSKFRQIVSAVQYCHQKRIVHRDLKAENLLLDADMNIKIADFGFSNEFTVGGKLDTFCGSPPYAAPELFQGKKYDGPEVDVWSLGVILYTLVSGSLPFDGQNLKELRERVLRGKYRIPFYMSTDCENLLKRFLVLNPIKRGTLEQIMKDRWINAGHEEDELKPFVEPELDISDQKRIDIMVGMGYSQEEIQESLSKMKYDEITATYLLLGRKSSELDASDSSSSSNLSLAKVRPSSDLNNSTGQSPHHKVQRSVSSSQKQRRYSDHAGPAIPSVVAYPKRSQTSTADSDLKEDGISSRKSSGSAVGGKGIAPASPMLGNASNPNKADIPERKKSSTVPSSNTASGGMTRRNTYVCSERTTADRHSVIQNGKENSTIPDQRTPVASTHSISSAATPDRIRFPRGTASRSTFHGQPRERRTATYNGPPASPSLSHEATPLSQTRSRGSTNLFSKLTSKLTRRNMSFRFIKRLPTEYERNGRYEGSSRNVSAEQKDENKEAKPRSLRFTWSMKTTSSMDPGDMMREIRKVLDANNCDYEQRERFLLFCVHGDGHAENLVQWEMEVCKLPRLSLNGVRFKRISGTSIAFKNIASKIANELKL

[14] = target: TSSK1 (Homo sapiens, UniProt Q9BXA7); experiment: ICKP radiometric kinase assay; type: biochemical; conditions: read-out: % AR (% kinase activity remaining)
[15] = target: CK1 gamma 2 (Homo sapiens, UniProt P78368); experiment: ICKP radiometric kinase assay; type: biochemical; conditions: read-out: % AR (% kinase activity remaining)
Chain of CK1 gamma 2 (P78368 whole entry): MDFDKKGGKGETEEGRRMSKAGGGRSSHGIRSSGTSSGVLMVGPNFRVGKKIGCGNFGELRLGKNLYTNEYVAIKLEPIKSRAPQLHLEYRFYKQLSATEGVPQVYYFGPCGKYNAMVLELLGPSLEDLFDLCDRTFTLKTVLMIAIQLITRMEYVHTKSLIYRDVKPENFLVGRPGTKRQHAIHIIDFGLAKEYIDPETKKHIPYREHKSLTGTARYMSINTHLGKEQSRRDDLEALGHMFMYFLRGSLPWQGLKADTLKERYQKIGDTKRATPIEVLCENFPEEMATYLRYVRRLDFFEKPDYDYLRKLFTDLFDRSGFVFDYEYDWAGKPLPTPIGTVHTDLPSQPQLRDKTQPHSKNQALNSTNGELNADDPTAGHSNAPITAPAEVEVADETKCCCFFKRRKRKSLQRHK

[16] = target: TBK1 (Homo sapiens, UniProt Q9UHD2); experiment: ICKP radiometric kinase assay; type: biochemical; conditions: read-out: % AR (% kinase activity remaining)
Chain of TBK1 (Q9UHD2 whole entry): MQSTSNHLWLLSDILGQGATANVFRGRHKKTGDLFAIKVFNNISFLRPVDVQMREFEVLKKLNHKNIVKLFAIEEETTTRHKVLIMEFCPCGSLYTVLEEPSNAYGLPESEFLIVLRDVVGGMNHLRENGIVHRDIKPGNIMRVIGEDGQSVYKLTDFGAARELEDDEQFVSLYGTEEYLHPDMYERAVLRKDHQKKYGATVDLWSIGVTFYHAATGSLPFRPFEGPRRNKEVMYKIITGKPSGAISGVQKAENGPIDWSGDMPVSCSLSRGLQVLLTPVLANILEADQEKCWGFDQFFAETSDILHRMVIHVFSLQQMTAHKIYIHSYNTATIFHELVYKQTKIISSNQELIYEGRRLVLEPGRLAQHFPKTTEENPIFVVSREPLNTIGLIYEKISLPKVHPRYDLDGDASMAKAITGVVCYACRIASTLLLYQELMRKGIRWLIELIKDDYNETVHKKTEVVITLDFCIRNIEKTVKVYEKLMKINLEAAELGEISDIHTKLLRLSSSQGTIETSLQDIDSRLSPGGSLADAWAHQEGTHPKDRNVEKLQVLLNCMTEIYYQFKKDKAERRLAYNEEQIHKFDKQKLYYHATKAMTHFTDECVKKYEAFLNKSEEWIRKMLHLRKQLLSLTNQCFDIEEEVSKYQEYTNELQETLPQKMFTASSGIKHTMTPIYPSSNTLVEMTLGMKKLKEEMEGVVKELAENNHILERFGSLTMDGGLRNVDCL

[17] = target: PIM1 (Homo sapiens, UniProt P11309); experiment: ICKP radiometric kinase assay; type: biochemical; conditions: for remaining activity at 1 µM: read-out: % AR (% kinase activity remaining)
Chain of PIM1 (P11309 whole entry, species assumed): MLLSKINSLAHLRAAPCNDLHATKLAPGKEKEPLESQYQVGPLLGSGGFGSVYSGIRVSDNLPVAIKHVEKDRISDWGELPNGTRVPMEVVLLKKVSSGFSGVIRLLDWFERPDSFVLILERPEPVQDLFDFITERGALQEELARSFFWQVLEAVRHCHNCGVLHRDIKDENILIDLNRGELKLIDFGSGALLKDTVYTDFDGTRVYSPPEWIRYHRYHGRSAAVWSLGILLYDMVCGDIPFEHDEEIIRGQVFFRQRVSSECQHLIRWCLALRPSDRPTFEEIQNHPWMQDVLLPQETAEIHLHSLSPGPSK

[18] = target: EF2K (Homo sapiens, UniProt O00418); experiment: ICKP radiometric kinase assay; type: biochemical; conditions: read-out: % AR (% kinase activity remaining)
[19] = target: HIPK3 (Homo sapiens, UniProt Q9H422); experiment: ICKP radiometric kinase assay; type: biochemical; conditions: read-out: % AR (% kinase activity remaining)
[20] = target: PAK2 (Homo sapiens, UniProt Q13177); experiment: ICKP radiometric kinase assay; type: biochemical; conditions: read-out: % AR (% kinase activity remaining)
Chain of PAK2 (Q13177 whole entry): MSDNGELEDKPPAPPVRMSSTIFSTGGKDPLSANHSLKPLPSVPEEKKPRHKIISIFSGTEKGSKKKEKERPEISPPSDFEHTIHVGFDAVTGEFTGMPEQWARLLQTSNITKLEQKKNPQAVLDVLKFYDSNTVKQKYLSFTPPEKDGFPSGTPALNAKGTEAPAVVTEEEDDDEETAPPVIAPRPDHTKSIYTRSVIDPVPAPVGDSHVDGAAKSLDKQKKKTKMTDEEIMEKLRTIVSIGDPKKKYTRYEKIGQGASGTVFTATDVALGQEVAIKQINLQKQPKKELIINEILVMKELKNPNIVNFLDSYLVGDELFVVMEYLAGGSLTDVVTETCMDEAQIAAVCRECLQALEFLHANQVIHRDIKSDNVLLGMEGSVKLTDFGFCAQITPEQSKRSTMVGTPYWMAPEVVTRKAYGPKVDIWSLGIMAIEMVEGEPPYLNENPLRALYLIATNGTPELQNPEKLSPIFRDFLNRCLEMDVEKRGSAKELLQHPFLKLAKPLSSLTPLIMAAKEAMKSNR

[21] = target: MST3 (Homo sapiens, UniProt Q9Y6E0); experiment: ICKP radiometric kinase assay; type: biochemical; conditions: read-out: % AR (% kinase activity remaining)
[22] = target: MLK1 (Homo sapiens, UniProt P80192); experiment: ICKP radiometric kinase assay; type: biochemical; conditions: read-out: % AR (% kinase activity remaining)
[23] = target: ASK1 (Homo sapiens, UniProt Q99683); experiment: ICKP radiometric kinase assay; type: biochemical; conditions: read-out: % AR (% kinase activity remaining)
[24] = target: MPSK1 (Homo sapiens, UniProt O75716); experiment: ICKP radiometric kinase assay; type: biochemical; conditions: read-out: % AR (% kinase activity remaining)
[25] = target: WNK1 (Homo sapiens, UniProt Q9H4A3); experiment: ICKP radiometric kinase assay; type: biochemical; conditions: read-out: % AR (% kinase activity remaining)
[26] = target: ULK1 (Homo sapiens, UniProt O75385); experiment: ICKP radiometric kinase assay; type: biochemical; conditions: read-out: % AR (% kinase activity remaining)
[27] = target: CSK (Homo sapiens, UniProt P41240); experiment: ICKP radiometric kinase assay; type: biochemical; conditions: read-out: % AR (% kinase activity remaining)
[28] = target: ABL (Homo sapiens, UniProt P00519); experiment: ICKP radiometric kinase assay; type: biochemical; conditions: read-out: % AR (% kinase activity remaining)
[29] = target: BTK (Homo sapiens, UniProt Q06187); experiment: ICKP radiometric kinase assay; type: biochemical; conditions: read-out: % AR (% kinase activity remaining)
Chain of BTK (Q06187 whole entry): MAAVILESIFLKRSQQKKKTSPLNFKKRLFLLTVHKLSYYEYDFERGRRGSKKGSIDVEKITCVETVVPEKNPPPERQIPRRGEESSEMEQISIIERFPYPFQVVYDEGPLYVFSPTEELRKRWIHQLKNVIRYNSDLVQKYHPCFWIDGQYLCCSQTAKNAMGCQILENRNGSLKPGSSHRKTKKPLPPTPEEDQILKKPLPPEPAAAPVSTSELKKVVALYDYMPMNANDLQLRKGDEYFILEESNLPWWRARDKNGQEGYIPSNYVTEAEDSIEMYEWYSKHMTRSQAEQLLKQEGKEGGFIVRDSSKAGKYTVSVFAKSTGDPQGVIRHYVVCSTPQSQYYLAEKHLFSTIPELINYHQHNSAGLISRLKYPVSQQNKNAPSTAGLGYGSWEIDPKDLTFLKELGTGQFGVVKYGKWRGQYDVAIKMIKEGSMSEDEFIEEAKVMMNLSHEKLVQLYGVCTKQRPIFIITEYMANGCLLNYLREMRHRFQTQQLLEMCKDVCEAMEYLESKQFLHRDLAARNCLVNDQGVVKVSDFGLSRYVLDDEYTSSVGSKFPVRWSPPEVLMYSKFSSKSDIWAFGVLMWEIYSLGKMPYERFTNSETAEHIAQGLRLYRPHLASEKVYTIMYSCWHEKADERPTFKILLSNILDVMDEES

[30] = target: SYK (Homo sapiens, UniProt P43405); experiment: ICKP radiometric kinase assay; type: biochemical; conditions: read-out: % AR (% kinase activity remaining)
[31] = target: TIE2 (Homo sapiens, UniProt Q02763); experiment: ICKP radiometric kinase assay; type: biochemical; conditions: read-out: % AR (% kinase activity remaining)
[32] = target: EPH-A2 (Homo sapiens, UniProt P29317); experiment: ICKP radiometric kinase assay; type: biochemical; conditions: read-out: % AR (% kinase activity remaining)
[33] = target: IGF-1R (Homo sapiens, UniProt P08069); experiment: ICKP radiometric kinase assay; type: biochemical; conditions: read-out: % AR (% kinase activity remaining)
[34] = target: TrkA (Homo sapiens, UniProt P04629); experiment: ICKP radiometric kinase assay; type: biochemical; conditions: read-out: % AR (% kinase activity remaining)
[35] = target: DDR2 (Homo sapiens, UniProt Q16832); experiment: ICKP radiometric kinase assay; type: biochemical; conditions: read-out: % AR (% kinase activity remaining)
Chain of DDR2 (Q16832 22-855): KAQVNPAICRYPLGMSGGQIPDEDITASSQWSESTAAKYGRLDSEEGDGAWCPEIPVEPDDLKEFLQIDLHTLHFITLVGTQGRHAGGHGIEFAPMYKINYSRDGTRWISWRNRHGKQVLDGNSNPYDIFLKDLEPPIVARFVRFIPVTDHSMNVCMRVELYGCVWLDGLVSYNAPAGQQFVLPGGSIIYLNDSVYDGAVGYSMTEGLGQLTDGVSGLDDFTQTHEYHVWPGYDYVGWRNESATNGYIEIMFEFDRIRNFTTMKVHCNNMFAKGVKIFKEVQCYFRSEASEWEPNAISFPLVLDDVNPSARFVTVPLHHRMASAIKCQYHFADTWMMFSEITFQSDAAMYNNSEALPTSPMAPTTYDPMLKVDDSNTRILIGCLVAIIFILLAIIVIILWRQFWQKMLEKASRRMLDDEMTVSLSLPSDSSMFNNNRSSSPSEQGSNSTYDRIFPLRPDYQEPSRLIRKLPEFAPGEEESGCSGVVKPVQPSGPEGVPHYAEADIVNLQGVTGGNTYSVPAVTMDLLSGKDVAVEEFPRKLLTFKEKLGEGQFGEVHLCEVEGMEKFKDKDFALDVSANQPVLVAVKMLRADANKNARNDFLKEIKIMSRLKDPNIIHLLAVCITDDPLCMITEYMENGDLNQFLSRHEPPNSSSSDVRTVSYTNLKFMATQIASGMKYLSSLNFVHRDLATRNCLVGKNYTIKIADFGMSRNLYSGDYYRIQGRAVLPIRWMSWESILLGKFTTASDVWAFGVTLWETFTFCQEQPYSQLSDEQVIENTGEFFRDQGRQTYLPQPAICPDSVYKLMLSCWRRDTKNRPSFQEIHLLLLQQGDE

[36] = test system: T-47D; experiment: Cell proliferation assay (CellTiter-Glo); conditions: Homo sapiens, T47D
[37] = 72 h, read-out: 3-day antiproliferative IC50
[38] = 168 h, read-out: 7-day antiproliferative IC50

Chain of ERK1 (P27361 whole entry): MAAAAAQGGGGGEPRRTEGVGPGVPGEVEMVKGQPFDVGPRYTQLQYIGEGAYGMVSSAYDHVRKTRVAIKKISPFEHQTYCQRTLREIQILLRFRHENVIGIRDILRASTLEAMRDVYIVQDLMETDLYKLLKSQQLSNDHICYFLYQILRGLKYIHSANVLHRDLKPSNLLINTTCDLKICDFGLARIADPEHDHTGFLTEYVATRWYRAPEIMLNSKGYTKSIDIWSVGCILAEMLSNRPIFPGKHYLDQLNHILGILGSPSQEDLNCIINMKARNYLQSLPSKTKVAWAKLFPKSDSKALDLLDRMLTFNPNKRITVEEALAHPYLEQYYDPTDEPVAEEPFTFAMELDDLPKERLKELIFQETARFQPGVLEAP

Row | SMILES | remaining activity at 1 µM [1] [%] | remaining activity at 1 µM [2] [%] | remaining activity at 1 µM [3] [%] | remaining activity at 1 µM [4] [%] | remaining activity at 1 µM [5] [%] | remaining activity at 1 µM [6] [%] | remaining activity at 1 µM [7] [%] | remaining activity at 1 µM [8] [%] | remaining activity at 1 µM [9] [%] | remaining activity at 1 µM [10] [%] | remaining activity at 1 µM [11] [%] | remaining activity at 1 µM [12] [%] | remaining activity at 1 µM [13] [%] | remaining activity at 1 µM [14] [%] | remaining activity at 1 µM [15] [%] | remaining activity at 1 µM [16] [%] | remaining activity at 1 µM [17] [%] | remaining activity at 1 µM [18] [%] | remaining activity at 1 µM [19] [%] | remaining activity at 1 µM [20] [%] | also measured
1 | CN(C)C[C@H]1CC[C@H](N2C(=O)NCc3cnc4ccc(-c5cc(Cl)c(O)c(Cl)c5)cc4c32)CC1 [HTH-01-091, 9-(3,5-dichloro-4-hydroxyphenyl)-1-(trans-4-((dimethylamino)methyl)cyclohexyl)-3,4-dihydropyrimido[5,4 c]quinolin-2(1H)-one] | 119 | 102 | 88 | 112 | 82 | 79 | 96 | 98 | 91 | 98 | 35 | 100 | 94 | 68 | 80 | 88 | 1 | 85 | 25 | 88 | IC50 ([17]; radioactive filter-binding assay provided by the ICKP, read-out: Enzymatic IC50 PIM1): 60.6 nM; remaining activity at 1 µM [21]: 93%; remaining activity at 1 µM [22]: 35%; remaining activity at 1 µM [23]: 90%; remaining activity at 1 µM [24]: 107%; remaining activity at 1 µM [25]: 101%; remaining activity at 1 µM [26]: 93%; remaining activity at 1 µM [27]: 76%; remaining activity at 1 µM [28]: 70%; remaining activity at 1 µM [29]: 45%; remaining activity at 1 µM [30]: 112%; remaining activity at 1 µM [31]: 71%; remaining activity at 1 µM [32]: 66%; remaining activity at 1 µM [33]: 92%; remaining activity at 1 µM [34]: 53%; remaining activity at 1 µM [35]: 44%; IC50 [36, 37]: 3870 nM; IC50 [36, 38]: 780 nM
2 | CC(=O)c1cnc2ccc(-c3cc(Cl)c(O)c(Cl)c3)nc2c1N[C@H]1CC[C@H](CN(C)C)CC1 [OTSSP167] | 88 | 4 | 24 | 12 | 49 | 7 | 19 | 14 | 2 | 10 | 14 | 83 | 13 | 1 | 10 | 6 | 10 | 114 | 0 | 74 | remaining activity at 1 µM [21]: 5%; remaining activity at 1 µM [22]: 1%; remaining activity at 1 µM [23]: 7%; remaining activity at 1 µM [24]: 5%; remaining activity at 1 µM [25]: 111%; remaining activity at 1 µM [26]: 32%; remaining activity at 1 µM [27]: 9%; remaining activity at 1 µM [28]: 1%; remaining activity at 1 µM [29]: 7%; remaining activity at 1 µM [30]: 7%; remaining activity at 1 µM [31]: 3%; remaining activity at 1 µM [32]: 7%; remaining activity at 1 µM [33]: 4%; remaining activity at 1 µM [34]: 1%; remaining activity at 1 µM [35]: 0%; IC50 [36, 37]: 106 nM; IC50 [36, 38]: 9 nM

Source: paper PMC5605198, “MELK is not necessary for the proliferation of basal-like breast cancer cells” (eLife, 2017)
